According to publication PMC4066437, “Oxidation of cellular amino acid pools leads to cytotoxic mistranslation of the genetic code” (eLife, 2014):

Molecular target: T1, E. coli TyrRS (Escherichia coli, UniProt P0AGJ9)
T1 construct: gene tyrS; homodimer
T1 sequence (P0AGJ9 2-424): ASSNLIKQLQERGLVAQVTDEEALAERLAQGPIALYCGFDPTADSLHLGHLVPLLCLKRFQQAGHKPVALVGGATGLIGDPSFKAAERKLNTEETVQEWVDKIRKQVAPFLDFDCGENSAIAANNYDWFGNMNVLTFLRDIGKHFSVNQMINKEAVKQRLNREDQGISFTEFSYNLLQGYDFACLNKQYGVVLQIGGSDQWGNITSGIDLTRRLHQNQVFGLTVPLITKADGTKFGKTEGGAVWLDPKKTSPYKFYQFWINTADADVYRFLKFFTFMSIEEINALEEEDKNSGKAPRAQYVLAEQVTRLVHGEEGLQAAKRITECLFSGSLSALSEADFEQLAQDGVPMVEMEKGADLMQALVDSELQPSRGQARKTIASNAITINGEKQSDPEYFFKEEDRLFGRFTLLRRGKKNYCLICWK
Test: aminoacylation of […]-tRNA transcript
Assay type: biochemical
Conditions: 1 mM m-Tyr, 50 nM TyrRS, 25 °C; tRNA named tRNA(Tyr) in text, tRNA(Phe) in legend

Which “aminoacylation of 32P-tRNA transcript” value does the source give for `NC(Cc1cccc(O)c1)C(=O)O` (racemic) [m-Tyr, D,L-m-Tyr] here?
The value was “Aminoacylation of tRNA^Tyr with m-Tyr by E. coli TyrRS was detected in vitro”.
